# Test results published in patent US9168306B2, “Drug delivery agents comprising cyclodextrin covalently linked to a gemini surfactant, and pharmaceutical compositions comprising the same” (University of Saskatchewan, priority 2011, dated 2015).
# Values joined by “and” are separate entries in the source; they are usually repeats but may differ in a detail not shown here. Identical values can stand only once.
# Tests used:
# A375 cells [1] = assay: Flow cytometry apoptosis assay (Annexin V-FITC / propidium iodide); assay type: cell-based, human; conditions: delivery agent alone as control, 14 μM; 48 h
# Experimental: A375 cells at the second passage were seeded at a density of 1×10^6 cells per well in 6 well tissue culture-treated plates. Cells were incubated at 37° C. in a humidified incubator with 5% CO2 and 95% air, overnight. […] The resveratrol and sodium butyrate controls were used to calibrate the flow cytometer for cell cycle arrest in the A375 cell. All treatments were performed in triplicate wells. Cells were incubated with the formulations and controls for 48 h. All cells, floating and adherent, were collected, the triplicate wells pooled and washed in PBS. The cell populations were divided into two. Half of the cells was fixed in 70% ethanol for 2 h, washed twice in 300 μg/mL RNase A (Qiagen) in PBS. The cell pellet was resuspended in PBS and stained with propidium iodide, 20 μg/mL (Sigma). […]
# (§1) Flow cytometry was performed with a FacsCalibur instrument (BD Biosciences). The treatment groups were analyzed using ModFit LT flow cytometry modeling software (Verity Software House, Inc) after gating the area of non-treated cells by excluding aggregates and debris.
# The type of cell death of the A375 cells after treatment of the compositions was captured by performing the apoptosis assay (as shown in FIG. 7). […] Apoptosis was measured by dual staining of the cells with Annexin V-FITC and propidium iodide. […]
# [2] = Size and ζ-potential measurement of compositions (Zetasizer Nano ZS); assay type: physicochemical
# Experimental: Due to their low solubility in water, for the in vitro testing, each drug was dissolved in dimethylsulfoxide (DMSO, Sigma) at 2 mM concentration. The drug was added at increasing concentrations of 0.01-200 μM to the supplemented media with the final DMSO concentration of 2% exposed to the cells. For the formulations, CD or CDgemini was dissolved in water (10 mM) and the drugs were dissolved in methanol (2 mM). The delivery agent to drug mole ratio was maintained at 2:1. The solvent mixture was evaporated in a rotary evaporator under vacuum and the residue was reconstituted in water. Samples were dispersed by sonication for 2 h and stored overnight at 4° C. Samples were re-sonicated, prior to diluting in supplemented media, for 15 min.
# Compositions were prepared as described above. The size and ζ-potential of the particles were measured with a Zetasizer Nano ZS instrument (Malvern Instruments, UK). Results are reported as the mean of 3-5 measurements±standard deviations.
# A375 cells [3] = assay: Flow cytometry cell cycle analysis (propidium iodide); assay type: cell-based, human; conditions: delivery agent alone as control, 14 μM; 48 h
# Experimental: A375 cells at the second passage were seeded at a density of 1×10^6 cells per well in 6 well tissue culture-treated plates. Cells were incubated at 37° C. in a humidified incubator with 5% CO2 and 95% air, overnight. […] The resveratrol and sodium butyrate controls were used to calibrate the flow cytometer for cell cycle arrest in the A375 cell. All treatments were performed in triplicate wells. Cells were incubated with the formulations and controls for 48 h. All cells, floating and adherent, were collected, the triplicate wells pooled and washed in PBS. The cell populations were divided into two. Half of the cells was fixed in 70% ethanol for 2 h, washed twice in 300 μg/mL RNase A (Qiagen) in PBS. The cell pellet was resuspended in PBS and stained with propidium iodide, 20 μg/mL (Sigma). The other half of the cells was suspended in binding buffer and stained as per the Annexin V-FITC Apoptosis Detection Kit (BioVision) protocol.
# as §1
# [4] = Transmission electron microscopy of compositions; assay type: physicochemical
# Experimental: Drug/CDgemini conjugates prepared for the size measurements were used for TEM. Aliquots of 10 μL samples were dropped onto 300-mesh formvar-coated copper grids (SPI Supplies) and incubated for 5 min at room temperature. The water was wicked off the grids with absorbent tissue and the grids were stained with 1% phosphotungstic acid for 2 min. The stain was removed and the grids were dried at room temperature for 15 min. The samples were examined with a Philips CM10 electron microscope at an accelerating voltage of 80 kV.
# [5] = tested on: a number of cancer cells, including human SK-MEL-5 cells; conditions: literature values; cited from earlier work
size of particles in TEM images [4],Particle size Peak 1 Intensity [2],ζ potential [2],Particle size Peak 1 ([2]; mean of 3-5 measurements ± SD),PDI ([2]; polydispersity index),Structure (SMILES),"apoptosis, of the total population (A375 cells [1])",formation of supramolecular aggregates [2],cells in G0/G1 (A375 cells [3]),cells in S-phase (A375 cells [3]),cytotoxic concentrations [5]
–,–,–,–,–,"OC[C@H]1O[C@@H]2O[C@H]3[C@H](O)[C@@H](O)[C@@H](O[C@H]4[C@H](O)[C@@H](O)[C@@H](O[C@H]5[C@H](O)[C@@H](O)[C@@H](O[C@H]6[C@H](O)[C@@H](O)[C@@H](O[C@H]7[C@H](O)[C@@H](O)[C@@H](O[C@H]8[C@H](O)[C@@H](O)[C@@H](O[C@H]1[C@H](O)[C@H]2O)O[C@@H]8CO)O[C@@H]7CO)O[C@@H]6CO)O[C@@H]5CO)O[C@@H]4CO)O[C@@H]3CO [CD, β-Cyclodextrin, reference compound]",25%,neither CD nor drug/CD conjugates formed supramolecular aggregates,56%,43%,–
100-150 nm,100%,5.74±0.53 mV and 5.7 ± 0.5 mV,153.6±4.3 nm,0.2,"CCCCCCCCCCCC[N+](C)(C)CCCN(CCC[N+](C)(C)CCCCCCCCCCCC)C(=O)CCC(=O)OCC1OC2OC3C(CO)OC(OC4C(CO)OC(OC5C(CO)OC(OC6C(CO)OC(OC7C(CO)OC(OC8C(CO)OC(OC1C(O)C2O)C(O)C8O)C(O)C7O)C(O)C6O)C(O)C5O)C(O)C4O)C(O)C3O.[Cl-].[Cl-] (stereo not drawn) [CDgemini, [mono-6-o-(3{bis(3-(N-dodecyl-N,N-dimethylamino)-propyl)-carbamoyl}propanoyl)-beta-cyclodextrin]^2+]",31%,–,65%,35%,–
–,–,–,–,–,N[C@@H](Cc1ccc(N(CCCl)CCCl)cc1)C(=O)O [melphalan],–,–,–,–,52 to 219 µM
